# In patent publication US7705189B2, “Calixarene compound, process for producing the same, intermediate therefor, and composition thereof” (JSR Corporation, priority 2004, dated 2010):
# Experiment: Solubility test (2 ml solvent added to 2 mg derivative)
# Type: physicochemical
# Details: not given
# Description: A solubility test was carried out by adding 2 ml of each of the solvents shown in Table 4 to 2 mg of each of the derivatives listed in Table 4.
row,Structure (SMILES),Solubility in acetone and methylene chloride
1,CC1=C2OCOc3c4cc5c(c3C)OCOc3c6cc7c(c3C)OCOc3c8cc9c(c3C)OCOc3c%10cc%11c(c3C)OCOc3c%12cc%13c(c3C)OCOc3c(cc%14c(c3C)OCOc3c%15cc%16c(c3C)OCOc3c(cc%17c(c3C)OCOc3c%18cc%19c(c3C)OCOc3c(cc%20c(c3C)OCOc3c(cc%21c(c3C)OCOC1=C(C=C2C4CCCC9%10)C%21CCCC%18%17)C%20CCCC56)C%19CCCC%15%14)C%16CCCC%11%12)C%13CCCC78 (stereo not drawn) [formula (33)],dissolved in acetone and methylene chloride

# Experiment: Thermal characteristics by TG/DTA
# Type: physicochemical
# Details: nitrogen atmosphere, temperature rise 10° C./min
# Text: TG/DTA and DSC were used for the determination of the decomposition initiation temperature, 5% mass reduction temperature, and glass transition temperature of the derivatives shown in Table 3. The glass transition temperature could not be determined in any of the compounds. All compounds were confirmed to have high heat resistance. Comparison of T3 with T3-7 in which vinyl ether was deprotected and a spacer was introduced confirmed that there were almost no changes in the decomposition initiation temperature and 5% mass reduction temperature caused by introduction of the spacer. The lower decomposition initiation temperatures of these compounds as compared with other derivatives are due to their slight acidity resulting from the hydroxyl groups. […] T3-2a decomposed in two stages, that is, first the decomposition of phthalic acid ester bond and second the decomposition of the ester bond of methacryloyl groups.
First decomposition temperature: 5% mass decomposition temperature [°C],First decomposition temperature: Decomposition initiation temperature [°C],Structure (SMILES)
365,336,C=COCCOc1cc(OCCOC=C)c2cc1C1CCCC3c4cc(c(OCCOC=C)cc4OCCOC=C)C4CCCC5c6cc(c(OCCOC=C)cc6OCCOC=C)C(CCCC6c7cc(c(OCCOC=C)cc7OCCOC=C)C(CCCC7c8cc(c(OCCOC=C)cc8OCCOC=C)C(CCCC(c8cc(c(OCCOC=C)cc8OCCOC=C)C(CCCC2c2cc4c(OCCOC=C)cc2OCCOC=C)c2cc7c(OCCOC=C)cc2OCCOC=C)c2cc1c(OCCOC=C)cc2OCCOC=C)c1cc6c(OCCOC=C)cc1OCCOC=C)c1cc5c(OCCOC=C)cc1OCCOC=C)c1cc3c(OCCOC=C)cc1OCCOC=C [T3-6]
348,375,OCCOc1cc(OCCO)c2cc1C1CCCC3c4cc(c(OCCO)cc4OCCO)C4CCCC5c6cc(c(OCCO)cc6OCCO)C(CCCC6c7cc(c(OCCO)cc7OCCO)C(CCCC7c8cc(c(OCCO)cc8OCCO)C(CCCC(c8cc(c(OCCO)cc8OCCO)C(CCCC2c2cc4c(OCCO)cc2OCCO)c2cc7c(OCCO)cc2OCCO)c2cc1c(OCCO)cc2OCCO)c1cc6c(OCCO)cc1OCCO)c1cc5c(OCCO)cc1OCCO)c1cc3c(OCCO)cc1OCCO [T3-7]
365,333,Oc1cc(O)c2cc1C1CCCC3c4cc(c(O)cc4O)C4CCCC5c6cc(c(O)cc6O)C(CCCC6c7cc(c(O)cc7O)C(CCCC7c8cc(c(O)cc8O)C(CCCC(c8cc(c(O)cc8O)C(CCCC2c2cc4c(O)cc2O)c2cc7c(O)cc2O)c2cc1c(O)cc2O)c1cc6c(O)cc1O)c1cc5c(O)cc1O)c1cc3c(O)cc1O [T3]

Structure (SMILES),First decomposition temperature: 5% mass decomposition temperature [°C],First decomposition temperature: Decomposition initiation temperature [°C]
C=C(C)C(=O)Oc1cc(OC(=O)C(=C)C)c2cc1C1CCCC3c4cc(c(OC(=O)C(=C)C)cc4OC(=O)C(=C)C)C4CCCC5c6cc(c(OC(=O)C(=C)C)cc6OC(=O)C(=C)C)C(CCCC6c7cc(c(OC(=O)C(=C)C)cc7OC(=O)C(=C)C)C(CCCC7c8cc(c(OC(=O)C(=C)C)cc8OC(=O)C(=C)C)C(CCCC(c8cc(c(OC(=O)C(=C)C)cc8OC(=O)C(=C)C)C(CCCC2c2cc4c(OC(=O)C(=C)C)cc2OC(=O)C(=C)C)c2cc7c(OC(=O)C(=C)C)cc2OC(=O)C(=C)C)c2cc1c(OC(=O)C(=C)C)cc2OC(=O)C(=C)C)c1cc6c(OC(=O)C(=C)C)cc1OC(=O)C(=C)C)c1cc5c(OC(=O)C(=C)C)cc1OC(=O)C(=C)C)c1cc3c(OC(=O)C(=C)C)cc1OC(=O)C(=C)C [T3-1],418,387
